Molecular target: PCSK9 (Homo sapiens, UniProt Q8NBP7)
Assay: Assay 2 Biophysical human PCSK9 assay (SPR, Biacore)
Assay type: binding
Set-up: biotinylated human PCSK9 (31-692)-Avi-His6; His6 (C)
Settings: single-cycle kinetics, 30° C., geometric mean, read-out: Assay 2 (PCSK9 BIAcore DBA Cr) GMean Kd
Description: The SPR binding experiments were performed on a Biacore S200 optical biosensor unit at 30° C. A Series S Sensor Chip SA that is designed to bind biotinylated molecules for interaction analysis in Biacore systems was equilibrated at room temperature prior to use. The running buffer for protein tethering and subsequent ligand binding experiments was 10 mM HEPES pH 7.4, 150 mM NaCl, 0.05% (v/v) Tween 20 pH 7.4.
For the surface tethering of PCSK9, biotinylated human PCSK9 (31-692)-Avi-His6 at a concentration of 0.5 mg/mL was used. Prior to the surface tethering, the surface was exposed to a solution of 50 mM NaOH, 500 mM NaCl via 3 consecutive injections of this solution with a contact time of 60 s and a flowrate of 10 μL min^−1 to remove non-conjugated streptavidin. The PCSK9 protein was diluted to a concentration of 20 μg/mL using running buffer and injected with a contact time of 180-300 s and a flowrate of 10 μL min^−1 over a single flow channel (typically flow channel 2 or flow channel 4) with the aim to achieve protein capture levels of >5000 response units (RU). Remaining biotin binding sites were blocked via 2 consecutive injections of a 10 μM D-biotin solution in running buffer with a contact time of 60 s and a flowrate of 10 μL min^−1 over all flow-channels. Flow-channels 1 and 3 typically served as a reference surface throughout the subsequent binding experiments.
The binding experiments were all performed at a flow rate of 30 PL min^−1 and by employing the method of single-cycle kinetics. This approach involves the sequential injection of a compound concentration series without regeneration steps. A contact time between 90-150 s was selected, which was followed by a 40 min dissociation phase to allow for a proper estimation of the dissociation rate constant. Test compounds were delivered in DMSO at a concentration of 10 mM and a digital dispenser HP D300 was used to set up the compound concentration series using 6 concentrations. The tested concentrations have been 30, 100, 300, 1000, 3000 and 10000 nM. Prior to injecting any compound, the surfaces were equilibrated by injecting running buffer over them in three separate pulses. The data collection rate was set to 10 Hz.
The raw sensorgrams of the compound injections were first subjected to reference subtraction (subtracting the signal from flow channel 1 and/or 3 from the signal from channels 2 and/or 4 respectively) and then blank subtraction (subtracting the signal from injecting DMSO controls from the reference subtracted data). The resulting double-referenced sensorgrams were then fitted using a 1:1 binding interaction model using the manufactures software package to extract kinetic- and affinity data. Active compounds have been defined by creating a detectable binding signal at the highest compound concentration ([…]) of 3 RUs. Kinetic- and affinity data on active compounds are only provided for those compounds where the binding signal at the highest compound concentration ([…]) is 50% of the theoretical maximum binding signal for a 1:1 binding interaction (Rmax, typically between 15-20 RUs) in order to enable a proper fitting of the data.

PCSK9, sequence (Q8NBP7 31-692): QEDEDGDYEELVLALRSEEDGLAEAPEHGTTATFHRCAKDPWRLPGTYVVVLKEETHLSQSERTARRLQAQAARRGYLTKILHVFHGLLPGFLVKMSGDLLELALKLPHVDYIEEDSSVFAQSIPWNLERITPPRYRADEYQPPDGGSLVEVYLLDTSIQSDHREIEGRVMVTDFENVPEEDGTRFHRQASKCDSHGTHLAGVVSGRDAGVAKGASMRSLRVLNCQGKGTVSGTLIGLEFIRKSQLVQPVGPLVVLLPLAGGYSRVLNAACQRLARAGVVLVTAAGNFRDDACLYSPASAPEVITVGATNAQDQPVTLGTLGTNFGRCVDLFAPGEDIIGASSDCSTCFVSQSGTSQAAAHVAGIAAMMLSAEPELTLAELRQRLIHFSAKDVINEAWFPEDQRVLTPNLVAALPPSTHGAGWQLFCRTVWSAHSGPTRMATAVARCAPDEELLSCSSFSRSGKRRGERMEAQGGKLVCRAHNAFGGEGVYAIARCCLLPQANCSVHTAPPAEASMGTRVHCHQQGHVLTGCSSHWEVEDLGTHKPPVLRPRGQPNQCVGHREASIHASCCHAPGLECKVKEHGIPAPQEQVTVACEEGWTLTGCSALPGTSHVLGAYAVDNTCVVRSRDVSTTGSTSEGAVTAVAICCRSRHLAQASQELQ

## CNC(=O)c1cnc(N[C@H]2CC[C@H](Nc3ccc(-n4ccccc4=O)cn3)C2)nn1 [Example 75, N-Methyl-3-(((1S,3S)-3-((2-oxo-2H-[1,3′-bipyridin]-6′-yl)amino)cyclopentyl)amino)-1,2,4-triazine-6-carboxamide]
  Kd: 16 nM

## COc1cccn(-c2ccc(N[C@H]3CC[C@H](Nc4ncc(C)nn4)C3)nc2)c1=O [Example 132, 3-Methoxy-6′-(((1S,3S)-3-((6-methyl-1,2,4-triazin-3-yl)amino)cyclopentyl)amino)-2H-[1,3′-bipyridin]-2-one]
  Kd: 1.5 nM

## CN1CC(=O)N(c2ccc(N[C@H]3CC[C@H](Nc4ncc(C5CC5)nn4)C3)nc2)C1=O [Example 57, 3-(6-(((1S,3S)-3-((6-Cyclopropyl-1,2,4-triazin-3-yl)amino)cyclopentyl)amino)pyridin-3-yl)-1-methylimidazolidine-2,4-dione]
  Kd: 7.5 nM

## Cn1c(=O)n(-c2ccc(N[C@H]3CC[C@H](Nc4ncc(C5CC5)nn4)C3)nc2)c2ncccc21 [Example 63, 3-(6-(((1S,3S)-3-((6-Cyclopropyl-1,2,4-triazin-3-yl)amino)cyclopentyl)amino)pyridin-3-yl)-1-methyl-1,3-dihydro-2H-imidazo[4,5-b]pyridin-2-one]
  Kd: 1.4 nM

## Cn1c(=O)n(-c2ccc(N[C@H]3CC[C@H](Nc4ncc(C5CC5)nn4)C3)nc2)c2ccc(C(=O)O)cc21 [Example 121, 1-(6-(((1S,3S)-3-((6-Cyclopropyl-1,2,4-triazin-3-yl)amino)cyclopentyl)amino)pyridin-3-yl)-3-methyl-2-oxo-2,3-dihydro-1H-benzo[d]imidazole-5-carboxylic acid]
  Kd: 1.6 nM

## COc1cccn(-c2ccc(N[C@H]3CC[C@H](Nc4ncc(C5CC5)nn4)C3)nc2)c1=O [Example 64, 6′-(((1S,3S)-3-((6-Cyclopropyl-1,2,4-triazin-3-yl)amino)cyclopentyl)amino)-3-methoxy-2H-[1,3′-bipyridin]-2-one]
  Kd: 0.4 nM

## N#Cc1ccc(=O)n(-c2ccc(N[C@H]3CC[C@H](Nc4ncc(C5CC5)nn4)C3)nc2)c1 [Example 56, 6′-(((1S,3S)-3-((6-Cyclopropyl-1,2,4-triazin-3-yl)amino)cyclopentyl)amino)-2-oxo-2H-[1,3′-bipyridine]-5-carbonitrile]
  Kd: 7.4 nM

## Cc1cnc(N[C@H]2CC[C@H](Nc3ccc(-n4cccc(-c5cnn(C)c5)c4=O)cn3)C2)nn1 [Example 198, 6′-(((1S,3S)-3-((6-Methyl-1,2,4-triazin-3-yl)amino)cyclopentyl)amino)-3-(1-methyl-1H-pyrazol-4-yl)-2H-[1,3′-bipyridin]-2-one]
  Kd: 3.8 nM

## Cc1cnc(N[C@H]2CC[C@H](Nc3ccc(-n4nccc(Cl)c4=O)cn3)C2)nn1 [Example 221, 4-Chloro-2-(6-(((1S,3S)-3-((6-methyl-1,2,4-triazin-3-yl)amino)cyclopentyl)amino)pyridin-3-yl)pyridazin-3(2H)-one]
  Kd: 1.7 nM

## Cc1cnc(N[C@H]2CC[C@H](Nc3ccc(-n4cccc(OC(F)F)c4=O)cn3)C2)nn1 [Example 187, 3-(Difluoromethoxy)-6′-(((1S,3S)-3-((6-methyl-1,2,4-triazin-3-yl)amino)cyclopentyl)amino)-2H-[1,3′-bipyridin]-2-one]
  Kd: 3.7 nM

## O=C(NC1COC1)c1cnc(N[C@H]2CC[C@H](Nc3ccc(-n4ccccc4=O)cn3)C2)nn1 [Example 70, N-(Oxetan-3-yl)-3-(((1S,3S)-3-((2-oxo-2H-[1,3′-bipyridin]-6′-yl)amino)cyclopentyl)amino)-1,2,4-triazine-6-carboxamide]
  Kd: 21 nM

## O=c1c(Cl)cccn1-c1ccc(N[C@H]2CC[C@H](Nc3ncc(C4CC4)nn3)C2)nc1 [Example 55, 3-Chloro-6′-(((1S,3S)-3-((6-cyclopropyl-1,2,4-triazin-3-yl)amino)cyclopentyl)amino)-2H-[1,3′-bipyridin]-2-one]
  Kd: 0.4 nM

## O=c1c(C(F)(F)F)cccn1-c1ccc(N[C@H]2CC[C@H](Nc3ncc(C4CC4)nn3)C2)nc1 [Example 51, 6′-(((1S,3S)-3-((6-Cyclopropyl-1,2,4-triazin-3-yl)amino)cyclopentyl)amino)-3-(trifluoromethyl)-2H-[1,3′-bipyridin]-2-one]
  Kd: 0.9 nM

## O=c1cccnn1-c1ccc(N[C@H]2CC[C@H](Nc3ncc(C4CC4)nn3)C2)nc1 [Example 118]
  Kd: 8.5 nM

## Cc1cnc(N[C@H]2CC[C@H](Nc3ccc(-n4ccccc4=O)cn3)C2)nn1 [Example 67, 6′-(((1S,3S)-3-((6-Methyl-1,2,4-triazin-3-yl)amino)cyclopentyl)amino)-2H-[1,3′-bipyridin]-2-one]
  Kd: 17 nM

## O=c1ccncn1-c1ccc(N[C@H]2CC[C@H](Nc3ncc(C4CC4)nn3)C2)nc1 [Example 114, 3-(6-(((1S,3S)-3-((6-Cyclopropyl-1,2,4-triazin-3-yl)amino)cyclopentyl)amino)pyridin-3-yl)pyrimidin-4(3H)-one]
  Kd: 5.3 nM

## Cc1cnc(N[C@H]2CC[C@H](Nc3ccc(-n4c(=O)ccc5cccnc54)cn3)C2)nn1 [Example 197, 1-(6-(((1S,3S)-3-((6-Methyl-1,2,4-triazin-3-yl)amino)cyclopentyl)amino)pyridin-3-yl)-1,8-naphthyridin-2(1H)-one]
  Kd: 2.3 nM

## Cc1cnc(N[C@H]2CC[C@H](Nc3ccc(-n4cccc(C(F)(F)F)c4=O)cn3)C2)nn1 [Example 135, 6′-(((1S,3S)-3-((6-Methyl-1,2,4-triazin-3-yl)amino)cyclopentyl)amino)-3-(trifluoromethyl)-2H-[1,3′-bipyridin]-2-one]
  Kd: 3.9 nM

## Cc1cnc(N[C@H]2CC[C@H](Nc3ccc(-n4cccc(C)c4=O)cn3)C2)nn1 [Example 131, 3-Methyl-6′-(((1S,3S)-3-((6-methyl-1,2,4-triazin-3-yl)amino)cyclopentyl)amino)-2H-[1,3′-bipyridin]-2-one]
  Kd: 2.4 nM

## CN1C(=O)CN(c2ccc(N[C@H]3CC[C@H](Nc4ncc(C5CC5)nn4)C3)nc2)C1=O [Example 62, 1-(6-(((1S,3S)-3-((6-Cyclopropyl-1,2,4-triazin-3-yl)amino)cyclopentyl)amino)pyridin-3-yl)-3-methylimidazolidine-2,4-dione]
  Kd: 4.3 nM

## Cn1c(=O)n(-c2ccc(N[C@H]3CC[C@H](Nc4ncc(C5CC5)nn4)C3)nc2)c2ccc(C#N)cc21 [Example 117, 1-(6-(((1S,3S)-3-((6-Cyclopropyl-1,2,4-triazin-3-yl)amino)cyclopentyl)amino)pyridin-3-yl)-3-methyl-2-oxo-2,3-dihydro-1H-benzo[d]imidazole-5-carbonitrile]
  Kd: 0.9 nM

## O=c1ccc(Cl)cn1-c1ccc(N[C@H]2CC[C@H](Nc3ncc(C4CC4)nn3)C2)nc1 [Example 112, 5-Chloro-6′-(((1S,3S)-3-((6-cyclopropyl-1,2,4-triazin-3-yl)amino)cyclopentyl)amino)-2H-[1,3′-bipyridin]-2-one]
  Kd: 3.9 nM

## COc1ccc(=O)n(-c2ccc(N[C@H]3CC[C@H](Nc4ncc(C5CC5)nn4)C3)nc2)c1 [Example 65, 6′-(((1S,3S)-3-((6-Cyclopropyl-1,2,4-triazin-3-yl)amino)cyclopentyl)amino)-5-methoxy-2H-[1,3′-bipyridin]-2-one]
  Kd: 5.8 nM

## Cc1cnc(N[C@H]2CC[C@H](Nc3ccc(-n4cc(Cl)ccc4=O)cn3)C2)nn1 [Example 134, 5-Chloro-6′-(((1S,3S)-3-((6-methyl-1,2,4-triazin-3-yl)amino)cyclopentyl)amino)-2H-[1,3′-bipyridin]-2-one]
  Kd: 9.1 nM

## N#Cc1cccn(-c2ccc(N[C@H]3CC[C@H](Nc4ncc(C5CC5)nn4)C3)nc2)c1=O [Example 58, 6′-(((1S,3S)-3-((6-Cyclopropyl-1,2,4-triazin-3-yl)amino)cyclopentyl)amino)-2-oxo-2H-[1,3′-bipyridine]-3-carbonitrile]
  Kd: 2.2 nM

## Cn1c(=O)n(-c2ccc(N[C@H]3CC[C@H](Nc4ncc(C5CC5)nn4)C3)nc2)c2cc(C#N)ccc21 [Example 116, 3-(6-(((1S,3S)-3-((6-Cyclopropyl-1,2,4-triazin-3-yl)amino)cyclopentyl)amino)pyridin-3-yl)-1-methyl-2-oxo-2,3-dihydro-1H-benzo[d]imidazole-5-carbonitrile]
  Kd: 0.3 nM
